{
  "source": "patent US12414961B2",
  "about": "“Substituted nucleosides and nucleotides for treating viral infections” (priority 2013, dated 2025)",
  "key": {"[1]": {"tested_on": "BxPC3", "assay": "Cytotoxicity (CC50) BxPC3", "settings": "read-out: Cytotoxicity (CC50 uM) BxPC3; BxPC3"}, "[2]": {"tested_on": "HepG2", "assay": "Cytotoxicity (CC50) HepG2", "settings": "read-out: Cytotoxicity (CC50 uM) HepG2; HepG2"}, "[3]": {"tested_on": "Huh-7", "assay": "Cytotoxicity (CC50) Huh-7", "settings": "read-out: Cytotoxicity (CC50 uM) Huh-7; Huh-7"}, "[4]": {"tested_on": "CEM", "assay": "Cytotoxicity (CC50) CEM", "settings": "read-out: Cytotoxicity (CC50 uM) CEM; CEM"}, "[5]": {"tested_on": "A204", "assay": "Cytotoxicity (CC50) A204", "assay_type": "cell-based", "settings": "A204"}, "[6]": {"tested_on": "Huh-7 cells", "assay": "Cytotoxicity in Huh-7 cells of the HCV replicon assay", "settings": "read-out: Huh-7 cells (CC50 uM)"}, "[7]": {"tested_on": "Dengue Type 2", "assay": "Anti-Dengue virus cytoprotection assay, Huh-7 cells", "settings": "Huh-7, read-out: Dengue Type 2 Huh-7 Cells (EC50 uM)"}, "[8]": {"assay": "Cytotoxicity (CC50) BxPC3", "settings": "human, BxPC3 cells"}, "[9]": {"assay": "Cytotoxicity (CC50) HepG2", "settings": "human, HepG2 cells"}, "[10]": {"assay": "Cytotoxicity (CC50) Huh-7", "settings": "human, Huh-7 cells"}, "[11]": {"assay": "Cytotoxicity in Huh-7 cells (Dengue assay)", "settings": "human, Huh-7 cells"}, "[12]": {"assay": "Cytotoxicity in Vero cells (Dengue assay)", "settings": "African green monkey"}, "[13]": {"assay": "Cytotoxicity (CC50) CEM", "settings": "human, CEM cells"}, "[14]": {"tested_on": "Dengue Type 2", "assay": "Anti-Dengue virus cytoprotection assay, Vero cells", "settings": "read-out: Dengue Type 2 Vero Cells (EC50 uM)"}},
  "data": [
    {"compound": "C[C@@]1(O)C(O)[C@@H](CO)O[C@H]1n1ccc(=S)[nH]c1=O", "note": "(stereo partly shown)", "values": [
      {"measurement": "CC50", "setting": "[1]", "result": "> 100", "unit": "µM"},
      {"measurement": "CC50", "setting": "[2]", "result": "> 400", "unit": "µM"},
      {"measurement": "CC50", "setting": "[3]", "result": "> 100", "unit": "µM"},
      {"measurement": "CC50", "setting": "[4]", "result": "> 400", "unit": "µM"}
    ]},
    {"compound": "C[C@@]1(F)C(O)[C@@H](CO)O[C@H]1n1ccc(=S)[nH]c1=O", "note": "(stereo partly shown)", "values": [
      {"measurement": "CC50", "setting": "[2]", "result": "> 400", "unit": "µM"},
      {"measurement": "CC50", "setting": "[3]", "result": "> 400", "unit": "µM"},
      {"measurement": "CC50", "setting": "[4]", "result": "> 400", "unit": "µM"}
    ]},
    {"compound": "C[C@@]1(O)C(O)[C@@H](CO)O[C@H]1n1ccc(=O)[nH]c1=S", "note": "(stereo partly shown)", "values": [
      {"measurement": "CC50", "setting": "[1]", "result": "> 100", "unit": "µM"},
      {"measurement": "CC50", "setting": "[2]", "result": "> 400", "unit": "µM"},
      {"measurement": "CC50", "setting": "[3]", "result": "> 100", "unit": "µM"},
      {"measurement": "CC50", "setting": "[4]", "result": "> 200", "unit": "µM"}
    ]},
    {"compound": "CC(C)OC(=O)[C@H](C)NP(=O)(OC[C@H]1O[C@@H](n2ccc(=O)[nH]c2=[Se])[C@](C)(O)C1O)Oc1ccccc1", "note": "(stereo partly shown)", "values": [
      {"measurement": "CC50", "setting": "[1]", "result": "> 400", "unit": "µM"},
      {"measurement": "CC50", "setting": "[2]", "result": "> 400", "unit": "µM"},
      {"measurement": "CC50", "setting": "[5]", "result": "> 400", "unit": "µM"},
      {"measurement": "CC50", "setting": "[3]", "result": "> 100", "unit": "µM"}
    ]},
    {"compound": "CC(C)OC(=O)[C@H](C)N[P@@](=O)(OC[C@H]1O[C@@H](n2ccc(=O)[nH]c2=S)[C@](C)(O)C1O)Oc1ccccc1", "note": "(stereo partly shown)", "values": [
      {"measurement": "CC50", "setting": "[2]", "result": "> 400", "unit": "µM"},
      {"measurement": "CC50", "setting": "[3]", "result": "> 400", "unit": "µM"},
      {"measurement": "CC50", "setting": "[4]", "result": "> 400", "unit": "µM"}
    ]},
    {"compound": "CC(C)OC(=O)[C@H](C)N[P@@](=O)(OC[C@H]1O[C@@H](n2ccc(=O)[nH]c2=O)[C@](C)(F)C1O)Oc1ccccc1", "note": "(stereo partly shown)", "values": [
      {"measurement": "CC50", "setting": "[2]", "result": "> 400", "unit": "µM"},
      {"measurement": "CC50", "setting": "[3]", "result": "> 400", "unit": "µM"},
      {"measurement": "CC50", "setting": "[4]", "result": "> 400", "unit": "µM"}
    ]},
    {"compound": "CC(C)OC(=O)[C@H](C)NP(=O)(OC[C@H]1O[C@@H](n2ccc(=S)[nH]c2=O)[C@@H](O)C1O)Oc1ccccc1", "note": "(stereo partly shown)", "values": [
      {"measurement": "CC50", "setting": "[2]", "result": "> 400", "unit": "µM"}
    ]},
    {"compound": "C[C@H](NP(=O)(O)OC[C@H]1O[C@@H](n2ccc(=O)[nH]c2=S)[C@](C)(O)C1O)C(=O)O", "note": "(stereo partly shown)", "values": [
      {"measurement": "CC50", "setting": "[2]", "result": "> 400", "unit": "µM"},
      {"measurement": "CC50", "setting": "[3]", "result": "> 400", "unit": "µM"},
      {"measurement": "CC50", "setting": "[6]", "result": "> 100", "unit": "µM"},
      {"measurement": "CC50", "setting": "[4]", "result": "> 400", "unit": "µM"}
    ]},
    {"compound": "C[C@@]1(O)C(O)[C@@H](COP(=O)(O)O)O[C@H]1n1ccc(=O)[nH]c1=S", "note": "(stereo partly shown)", "values": [
      {"measurement": "CC50", "setting": "[2]", "result": "> 400", "unit": "µM"},
      {"measurement": "CC50", "setting": "[3]", "result": "> 400", "unit": "µM"},
      {"measurement": "CC50", "setting": "[6]", "result": "> 100", "unit": "µM"},
      {"measurement": "CC50", "setting": "[4]", "result": "> 400", "unit": "µM"}
    ]},
    {"compound": "CC(C)OC(=O)[C@H](C)NP(=O)(OC[C@@]1(N=[N+]=[N-])O[C@@H](n2ccc(=S)[nH]c2=O)[C@@H](O)C1O)Oc1ccccc1", "note": "(stereo partly shown)", "values": [
      {"measurement": "CC50", "setting": "[2]", "result": "> 400", "unit": "µM"},
      {"measurement": "CC50", "setting": "[3]", "result": "> 400", "unit": "µM"},
      {"measurement": "CC50", "setting": "[6]", "result": "> 100", "unit": "µM"},
      {"measurement": "CC50", "setting": "[4]", "result": 229, "unit": "µM"}
    ]},
    {"compound": "CC1(O)[C@@H](O)[C@@H](CO)O[C@H]1n1ccc(=O)[nH]c1=S", "note": "(stereo partly shown)", "values": [
      {"measurement": "EC50", "setting": "[7]", "result": "> 100", "unit": "µM"},
      {"measurement": "CC50", "setting": "[8]", "result": "> 100", "unit": "µM"},
      {"measurement": "CC50", "setting": "[9]", "result": "> 400", "unit": "µM"},
      {"measurement": "CC50", "setting": "[10]", "result": "> 100", "unit": "µM"},
      {"measurement": "CC50", "setting": "[11]", "result": "> 100", "unit": "µM"},
      {"measurement": "CC50", "setting": "[12]", "result": "> 100", "unit": "µM"},
      {"measurement": "CC50", "setting": "[13]", "result": "> 200", "unit": "µM"}
    ]},
    {"compound": "CC(C)OC(=O)[C@H](C)N[P@@](=O)(OC[C@H]1O[C@@H](n2ccc(=O)[nH]c2=S)C(C)(O)[C@H]1O)Oc1ccccc1", "note": "(stereo partly shown)", "values": [
      {"measurement": "EC50", "setting": "[7]", "result": 24.9, "unit": "µM"},
      {"measurement": "CC50", "setting": "[9]", "result": "> 400", "unit": "µM"},
      {"measurement": "CC50", "setting": "[10]", "result": "> 400", "unit": "µM"},
      {"measurement": "CC50", "setting": "[11]", "result": "> 100", "unit": "µM"},
      {"measurement": "CC50", "setting": "[12]", "result": "> 100", "unit": "µM"},
      {"measurement": "EC50", "setting": "[14]", "result": 56.2, "unit": "µM"},
      {"measurement": "CC50", "setting": "[13]", "result": "> 400", "unit": "µM"}
    ]},
    {"compound": "C#C[C@]1(COP(=O)(N[C@@H](C)C(=O)OC(C)C)Oc2ccccc2)O[C@@H](n2ccc(=O)[nH]c2=S)C(O)[C@H]1O", "note": "(stereo partly shown)", "values": [
      {"measurement": "EC50", "setting": "[7]", "result": "> 100", "unit": "µM"},
      {"measurement": "CC50", "setting": "[9]", "result": "> 400", "unit": "µM"},
      {"measurement": "CC50", "setting": "[10]", "result": "> 400", "unit": "µM"},
      {"measurement": "CC50", "setting": "[11]", "result": "> 100", "unit": "µM"},
      {"measurement": "CC50", "setting": "[13]", "result": "> 400", "unit": "µM"}
    ]},
    {"compound": "CC(C)OC(=O)[C@H](C)NP(=O)(OC[C@H]1O[C@@H](n2ccc(=O)[nH]c2=S)C(C)[C@H]1O)Oc1ccccc1", "note": "(stereo partly shown)", "values": [
      {"measurement": "EC50", "setting": "[7]", "result": 6.07, "unit": "µM"},
      {"measurement": "CC50", "setting": "[9]", "result": "> 400", "unit": "µM"},
      {"measurement": "CC50", "setting": "[10]", "result": "> 400", "unit": "µM"},
      {"measurement": "CC50", "setting": "[11]", "result": "> 100", "unit": "µM"},
      {"measurement": "CC50", "setting": "[13]", "result": 259, "unit": "µM"}
    ]}
  ]
}
